Laboratory results: patent publication US10988459B2 (priority 2015, dated 2021)
pKi: −log10 of the molar value.

Target: human RIP1 kinase domain (2-375) (Homo sapiens (Human), UniProt Q13546)
Assay: biochemical
Assay type: biochemical
Settings: tight-binding apparent inhibition constant; human RIP1 kinase domain (2-375) 50 nM, 50 uM ATP, 2 hours; read-out: Ki
Procedure: Example 794: RIP1 Kinase Inhibition Assays (Biochemical Assay)
The compounds of the present invention were tested for their capacity to inhibit RIP1K activity as described below.
The ability of the receptor interacting protein kinase (RIPK1) to catalyze the hydrolysis of adenosine-5′-triphosphate (ATP) is monitored using the Transcreener ADP (adenosine-5′-diphosphate) assay (BellBrook Labs). Purified human RIP1 kinase domain (2-375) (50 nM) derived from a baculovirus-infected insect cell expression system is incubated with test compounds for 2 hours in 50 mM Hepes buffer (pH 7.5) containing 30 mM MgCl2, 1 mM dithiothreitol, 50 uM ATP, 0.002% Brij-35, and 0.5% dimethyl sulfoxide (DMSO). […] The tracer bound to the antibody is displaced by the ADP generated during the RIP1K reaction, which causes a decrease in fluorescence polarization that is measured by laser excitation at 633 nm with a FP microplate reader M1000. Fractional activity was plotted against test article concentration. Using Genedata Screener software (Genedata; Basel, Switzerland), the data were fit to the tight-binding apparent inhibition constant (Ki^app) Morrison equation [Williams, J. W. and Morrison, J. F. (1979) The kinetics of reversible tight-binding inhibition. Methods Enzymol 63: 437-67]. The following equation was used to calculate fractional activity and Ki^app:
[formula] where [E]T and [I]T are the total concentrations of active enzyme and test article, respectively.
“Method” in the first column of each table refers to the synthetic method(s) used to prepare each compound as shown in the Examples above. In certain examples, chiral column retention times (min) are provided for certain stereoisomers.

human RIP1 kinase domain (2-375), sequence (Q13546 2-375): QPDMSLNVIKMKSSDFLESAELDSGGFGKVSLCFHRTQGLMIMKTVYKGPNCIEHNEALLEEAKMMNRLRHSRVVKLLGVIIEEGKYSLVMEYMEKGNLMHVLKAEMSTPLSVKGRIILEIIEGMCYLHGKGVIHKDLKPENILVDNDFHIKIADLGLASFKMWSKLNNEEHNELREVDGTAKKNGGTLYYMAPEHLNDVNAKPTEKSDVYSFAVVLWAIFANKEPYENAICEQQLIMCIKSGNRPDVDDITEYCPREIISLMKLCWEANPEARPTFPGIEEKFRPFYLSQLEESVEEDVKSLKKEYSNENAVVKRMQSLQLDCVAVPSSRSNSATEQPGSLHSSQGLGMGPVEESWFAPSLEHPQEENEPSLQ

Row | SMILES | pKi
1 | CC[C@@]1(C)OCc2cnc(C(=O)N[C@H]3COc4ccccc4N(C)C3=O)nc21 (mixture of isomers) [Example 682, (7R)-7-ethyl-7-methyl-N-[rac-(3S)-5-methyl-4-oxo-2,3-dihydro-1,5-benzoxazepin-3-yl]-5H-furo[3,4-d]pyrimidine-2-carboxamide] | 7.13
2 | CCC[C@]1(C)OCc2cnc(C(=O)N[C@H]3COc4ccccc4N(C)C3=O)nc21 (mixture of isomers) [Example 683, (7S)-7-methyl-7-propyl-N-[rac-(3S)-5-methyl-4-oxo-2,3-dihydro-1,5-benzoxazepin-3-yl]-5H-furo[3,4-d] pyrimidine-2-carboxamide] | 7.96
3 | CN1C(=O)[C@@H](NC(=O)c2ncn(Cc3ccc(F)cc3)n2)CCn2nccc21 (racemic) [Example 339, 1-[(4-fluorophenyl)methyl]-N-[rac-(6S)-4-methyl-5-oxo-7,8-dihydro-6H-pyrazolo[1,5-a][1,3]diazepin-6-yl]-1,2,4-triazole-3-carboxamide] | 7.55
4 | CN1C(=O)[C@@H](NC(=O)c2ncn(Cc3ccc(F)cc3F)n2)CCn2nccc21 (racemic) [Example 340, 1-[(2,4-difluorophenyl)methyl]-N-[rac-(6S)-4-methyl-5-oxo-7,8-dihydro-6H-pyrazolo[1,5-a][1,3]diazepin-6-yl]-1,2,4-triazole-3-carboxamide] | 7.89
5 | CN1C(=O)[C@@H](NC(=O)c2ncn(Cc3ccc(F)c(F)c3)n2)CCn2nccc21 (racemic) [Example 341, 1-[(3,4-difluorophenyl)methyl]-N-[rac-(6S)-4-methyl-5-oxo-7,8-dihydro-6H-pyrazolo[1,5-a][1,3]diazepin-6-yl]-1,2,4-triazole-3-carboxamide] | 7.77
6 | CN1C(=O)[C@@H](NC(=O)c2ncn(Cc3cccc(F)c3F)n2)CCn2nccc21 (racemic) [Example 342, 1-[(2,3-difluorophenyl)methyl]-N-[rac-(6S)-4-methyl-5-oxo-7,8-dihydro-6H-pyrazolo[1,5-a][1,3]diazepin-6-yl]-1,2,4-triazole-3-carboxamide] | 7.96
7 | C=C(C)c1cc2n(n1)CCC(NC(=O)c1ncn(Cc3ccccc3)n1)C(=O)N2C (racemic) [Example 365, 1-benzyl-N-(2-isopropenyl-4-methyl-5-oxo-7,8-dihydro-6H-pyrazolo[1,5-a][1,3]diazepin-6-yl)-1,2,4-triazole-3-carboxamide] | 7.51
8 | CN1C(=O)C(NC(=O)c2ncn(Cc3ccccc3)n2)CCn2nc(C(C)(F)F)cc21 (racemic) [Example 371, 1-benzyl-N-[2-(1,1-difluoroethyl)-4-methyl-5-oxo-7,8-dihydro-6H-pyrazolo[1,5-a][1,3]diazepin-6-yl]-1,2,4-triazole-3-carboxamide] | 7.00
9 | CN1C(=O)C(NC(=O)c2ncn(Cc3ccccc3)n2)CCn2nc(C(C)(C)O)cc21 (racemic) [Example 372, 1-benzyl-N-[2-(1-hydroxy-1-methyl-ethyl)-4-methyl-5-oxo-7,8-dihydro-6H-pyrazolo[1,5-a][1,3]diazepin-6-yl]-1,2,4-triazole-3-carboxamide] | 6.31
10 | CN1C(=O)[C@@H](NC(=O)c2nc3n(n2)[C@@H](c2ccccc2)CCC3)CCn2nccc21 (racemic) [Example 385, (R)—N—((S)-4-methyl-5-oxo-5,6,7,8-tetrahydro-4H-pyrazolo[1,5-a][1,3]diazepin-6-yl)-5-phenyl-5,6,7,8-tetrahydro-[1,2,4]triazolo[1,5-a]pyridine-2-carboxamide] | 7.61
11 | CN1C(=O)[C@@H](NC(=O)c2nc3n(n2)[C@H](c2c(F)cccc2F)CCC3)CCn2nccc21 (racemic) [Example 400, (S)-5-(2,6-difluorophenyl)-N—((S)-4-methyl-5-oxo-5,6,7,8-tetrahydro-4H-pyrazolo[1,5-a][1,3]diazepin-6-yl)-5,6,7,8-tetrahydro-[1,2,4]triazolo[1,5-a]pyridine-2-carboxamide] | 6.08
12 | CN1C(=O)[C@@H](NC(=O)c2nc3n(n2)[C@@H](c2c(F)cccc2F)CCC3)CCn2nccc21 (racemic) [Example 401, (R)-5-(2,6-difluorophenyl)-N—((S)-4-methyl-5-oxo-5,6,7,8-tetrahydro-4H-pyrazolo[1,5-a][1,3]diazepin-6-yl)-5,6,7,8-tetrahydro-[1,2,4]triazolo[1,5-a]pyridine-2-carboxamide] | 7.06
13 | CC[C@@H]1CCCc2nc(C(=O)N[C@H]3COc4ccccc4N(C)C3=O)nn21 (racemic) [Example 402, (R)-5-ethyl-N—((S)-5-methyl-4-oxo-2,3,4,5-tetrahydrobenzo[b][1,4]oxazepin-3-yl)-5,6,7,8-tetrahydro-[1,2,4]triazolo[1,5-a]pyridine-2-carboxamide] | 8.06
14 | CC[C@H]1CCCc2nc(C(=O)N[C@H]3COc4ccccc4N(C)C3=O)nn21 (racemic) [Example 403, (S)-5-ethyl-N—((S)-5-methyl-4-oxo-2,3,4,5-tetrahydrobenzo[b][1,4]oxazepin-3-yl)-5,6,7,8-tetrahydro-[1,2,4]triazolo[1,5-a]pyridine-2-carboxamide] | 7.09
15 | CN1C(=O)[C@@H](NC(=O)c2nc3n(n2)[C@@H](c2cnn(C)c2)CCC3)COc2ccccc21 (racemic) [Example 407, (R)-5-(1-methyl-1H-pyrazol-4-yl)-N—((S)-5-methyl-4-oxo-2,3,4,5-tetrahydrobenzo[b][1,4]oxazepin-3-yl)-5,6,7,8-tetrahydro-[1,2,4]triazolo[1,5-a]pyridine-2-carboxamide] | 7.26
16 | CN1C(=O)[C@@H](NC(=O)c2nc3n(n2)[C@@H](C2CCOCC2)CCC3)COc2ccccc21 (racemic) [Example 409, (R)—N—((S)-5-methyl-4-oxo-2,3,4,5-tetrahydrobenzo[b][1,4]oxazepin-3-yl)-5-(tetrahydro-2H-pyran-4-yl)-5,6,7,8-tetrahydro-[1,2,4]triazolo[1,5-a]pyridine-2-carboxamide] | 6.25
17 | CN1C(=O)[C@@H](NC(=O)c2nc3n(n2)[C@H](C2CCOCC2)CCC3)COc2ccccc21 (racemic) [Example 410, (S)—N—((S)-5-methyl-4-oxo-2,3,4,5-tetrahydrobenzo[b][1,4]oxazepin-3-yl)-5-(tetrahydro-2H-pyran-4-yl)-5,6,7,8-tetrahydro-[1,2,4]triazolo[1,5-a]pyridine-2-carboxamide] | 6.92
18 | CN1C(=O)[C@@H](NC(=O)c2nc3n(n2)[C@H](c2cnn(C)c2)CCC3)COc2ccccc21 (racemic) [Example 411, (S)-5-(1-methyl-1H-pyrazol-4-yl)-N—((S)-5-methyl-4-oxo-2,3,4,5-tetrahydrobenzo[b][1,4]oxazepin-3-yl)-5,6,7,8-tetrahydro-[1,2,4]triazolo[1,5-a]pyridine-2-carboxamide] | 5.19
19 | CC(C)[C@@H]1CCCc2nc(C(=O)N[C@H]3COc4ccccc4N(C)C3=O)nn21 (racemic) [Example 414, (S)-5-isopropyl-N—((S)-5-methyl-4-oxo-2,3,4,5-tetrahydrobenzo[b][1,4]oxazepin-3-yl)-5,6,7,8-tetrahydro-[1,2,4]triazolo[1,5-a]pyridine-2-carboxamide] | 7.87
20 | CCC[C@H]1CCCc2nc(C(=O)N[C@H]3COc4ccccc4N(C)C3=O)nn21 (racemic) [Example 415, (S)—N—((S)-5-methyl-4-oxo-2,3,4,5-tetrahydrobenzo[b][1,4]oxazepin-3-yl)-5-propyl-5,6,7,8-tetrahydro-[1,2,4]triazolo[1,5-a]pyridine-2-carboxamide] | 7.90
21 | CCC[C@@H]1CCCc2nc(C(=O)N[C@H]3COc4ccccc4N(C)C3=O)nn21 (racemic) [Example 416, (R)—N—((S)-5-methyl-4-oxo-2,3,4,5-tetrahydrobenzo[b][1,4]oxazepin-3-yl)-5-propyl-5,6,7,8-tetrahydro-[1,2,4]triazolo[1,5-a]pyridine-2-carboxamide] | 8.33
22 | CN1C(=O)[C@@H](NC(=O)c2nc3n(n2)[C@H](C(F)(F)F)CCC3)COc2ccccc21 (racemic) [Example 426, (S)—N—((S)-5-methyl-4-oxo-2,3,4,5-tetrahydrobenzo[b][1,4]oxazepin-3-yl)-5-(trifluoromethyl)-5,6,7,8-tetrahydro-[1,2,4]triazolo[1,5-a]pyridine-2-carboxamide] | 7.86
23 | Cc1ncc2n1CCC(NC(=O)c1ncn(Cc3ccccc3)n1)C(=O)N2C (racemic) [Example 557, 1-benzyl-N-(1,7-dimethyl-2-oxo-4,5-dihydro-3H-imidazo[1,5-a][1,3]diazepin-3-yl)-1,2,4-triazole-3-carboxamide] | 6.89
24 | Cc1cc2n(n1)CC[C@H](NC(=O)c1nc3n(n1)CC[C@H]3c1ccccc1)C(=O)N2C (racemic) [Example 575, (7S)-7-phenyl-N-[(6S)-2,4-dimethyl-5-oxo-7,8-dihydro-6H-pyrazolo[1,5-a][1,3]diazepin-6-yl]-6,7-dihydro-5H-pyrrolo[1,2-b][1,2,4]triazole-2-carboxamide] | 7.55
25 | CN1C(=O)[C@@H](NC(=O)c2ncn(Cc3ncccc3Cl)n2)CCn2nccc21 (racemic) [Example 656, 1-[(3-chloro-2-pyridyl)methyl]-N-[rac-(6S)-4-methyl-5-oxo-7,8-dihydro-6H-pyrazolo[1,5-a][1,3]diazepin-6-yl]-1,2,4-triazole-3-carboxamide] | 7.21
